26 compounds from the supplement of paper PMC12137928 can be followed below.

Each structure is given as a SMILES string. Counter-ions that a name gives are not always drawn.

The subject of the experiment is HCT116. Particulars: 72 h. Summed up:
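After seeding at 250 cells per well in 1536-well plates, HCT116 cells were given 5 h to attach. CellTiter-Glo luminescence, scaled to 0% for vehicle and -100% for positive control, was pattern-corrected. Fitting with a four-parameter Hill model produced IC50 and maximal efficacy.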

Consider `CCN(CC)CCNC(=O)c1cc(Cl)c(N)cc1OC` [Metoclopramide], for which the IC50 cell viability was over 45.8 µM (ICRF193 0 nM) and over 45.8 µM (ICRF193 200 nM).

Consider `COc1ccc2cc1Oc1cc3c(cc1OC)CC[N+](C)(C)[C@H]3Cc1ccc(cc1)Oc1c(OC)c(OC)cc3c1[C@@H](C2)[N+](C)(C)CC3` [Metocurine iodide], for which the IC50 cell viability (ICRF193 0 nM) is over 45.8 µM and the IC50 cell viability (ICRF193 200 nM) is over 45.8 µM.

Regarding `Cc1ccccc1N1C(=O)c2cc(S(N)(=O)=O)c(Cl)cc2NC1C` (configuration not stated) [Metolazone], the IC50 cell viability by setting is: (ICRF193 0 nM) over 45.8 µM; (ICRF193 200 nM) over 45.8 µM.

The compound `COC(=O)c1cncn1C(C)c1ccccc1` (configuration not stated) [Metomidate hydrochloride] displayed an IC50 cell viability (ICRF193 0 nM) of over 45.8 µM and an IC50 cell viability (ICRF193 200 nM) of over 45.8 µM.

As to `COCCc1ccc(OCC(O)CNC(C)C)cc1` (configuration not stated) [Metoprolol tartrate], the IC50 cell viability was over 45.8 µM (ICRF193 0 nM) and over 45.8 µM (ICRF193 200 nM).

As to `CC(=O)Nc1c(I)c(C(=O)N[C@H]2C(O)O[C@H](CO)[C@@H](O)[C@@H]2O)c(I)c(N(C)C(C)=O)c1I` (some centres not stated) [Metrizamide], the IC50 cell viability is over 45.8 µM (ICRF193 0 nM) and over 45.8 µM (ICRF193 200 nM).

`CC(=O)Nc1c(I)c(C(=O)O)c(I)c(N(C)C(C)=O)c1I` [Metrizoate sodium]: the IC50 cell viability (ICRF193 0 nM) is over 45.8 µM and the IC50 cell viability (ICRF193 200 nM) was over 45.8 µM.

Regarding `Cc1ncc([N+](=O)[O-])n1CCO` [Metronidazole], the IC50 cell viability reads like this: (ICRF193 0 nM) over 45.8 µM; (ICRF193 200 nM) over 45.8 µM.

Turning to `CC(C)(C(=O)c1cccnc1)c1cccnc1` [Metyrapone], the IC50 cell viability is over 45.8 µM (ICRF193 0 nM) and over 45.8 µM (ICRF193 200 nM).

Take `C[C@](N)(Cc1ccc(O)cc1)C(=O)O` [Metyrosine]: the IC50 cell viability reads like this: (ICRF193 0 nM) over 45.8 µM; (ICRF193 200 nM) over 45.8 µM.

`CC1COC2(c3ccccc3Cl)c3cc(Cl)ccc3NC(=O)CN12` (configuration not stated) [Mexazolam]: the IC50 cell viability runs as follows: (ICRF193 0 nM) over 45.8 µM; (ICRF193 200 nM) over 45.8 µM.

Regarding `Cc1cccc(C)c1OCC(C)N` (configuration not stated) [Mexiletene hydrochloride], the IC50 cell viability is, setting by setting: (ICRF193 0 nM) over 45.8 µM; (ICRF193 200 nM) over 45.8 µM.

In the case of `CC1(C)S[C@@H]2[C@H](NC(=O)[C@H](NC(=O)N3CCN(S(C)(=O)=O)C3=O)c3ccccc3)C(=O)N2[C@H]1C(=O)O` [Mezlocillin Sodium], the IC50 cell viability (ICRF193 0 nM) is over 45.8 µM and the IC50 cell viability (ICRF193 200 nM) is over 45.8 µM.

Take `C[C@@H]1CC2=CC(=O)CC[C@@H]2[C@H]2CC[C@@]3(C)[C@@H](CC[C@]3(C)O)[C@@H]21` [Mibolerone]: the IC50 cell viability is over 45.8 µM (ICRF193 0 nM) and over 45.8 µM (ICRF193 200 nM).

Turning to `CCCCCOc1ccc(-c2cc(-c3ccc(C(=O)N[C@H]4C[C@@H](O)[C@@H](O)NC(=O)[C@@H]5[C@@H](O)[C@@H](C)CN5C(=O)[C@H]([C@H](O)CC(N)=O)NC(=O)[C@H]([C@H](O)[C@@H](O)c5ccc(O)c(OS(=O)(=O)O)c5)NC(=O)[C@@H]5C[C@@H](O)CN5C(=O)[C@H]([C@@H](C)O)NC4=O)cc3)no2)cc1` [Micafunginsodium], the IC50 cell viability is, setting by setting: (ICRF193 0 nM) over 45.8 µM; (ICRF193 200 nM) over 45.8 µM.

For `CNC[C@@H]1CC[C@@H](N)[C@@H](O[C@H]2[C@H](O)[C@@H](O[C@H]3OC[C@](C)(O)[C@H](NC)[C@H]3O)[C@H](N)C[C@@H]2N)O1` [Micronomicin sulfate], the IC50 cell viability is over 45.8 µM (ICRF193 0 nM) and over 45.8 µM (ICRF193 200 nM).

In the case of `CCC(=O)O[C@@H]1CC(=O)O[C@H](C)C/C=C/C=C/[C@H](OC(C)=O)[C@H](C)C[C@H](CC=O)[C@H](O[C@@H]2O[C@H](C)[C@@H](O[C@H]3C[C@@](C)(OC(C)=O)[C@@H](OC(=O)CC)[C@H](C)O3)[C@H](N(C)C)[C@H]2O)[C@H]1OC` [Midecamycin Acetate], the IC50 cell viability is, setting by setting: (ICRF193 0 nM) over 45.8 µM; (ICRF193 200 nM) over 45.8 µM.

With `CCC(=O)O[C@@H]1CC(=O)O[C@H](C)C/C=C/C=C/[C@H](O)[C@H](C)C[C@H](CC=O)[C@H](O[C@@H]2O[C@H](C)[C@@H](O[C@H]3C[C@@](C)(O)[C@@H](OC(=O)CC)[C@H](C)O3)[C@H](N(C)C)[C@H]2O)[C@H]1OC` [Midecamycin], the IC50 cell viability by setting is: (ICRF193 0 nM) over 45.8 µM; (ICRF193 200 nM) over 45.8 µM.

On to `COc1ccc(OC)c(C(O)CNC(=O)CN)c1` (configuration not stated) [Midodrine hydrochloride], for which the IC50 cell viability was over 45.8 µM (ICRF193 0 nM) and over 45.8 µM (ICRF193 200 nM).

`CC#C[C@]1(O)CC[C@H]2[C@@H]3CCC4=CC(=O)CCC4=C3[C@@H](c3ccc(N(C)C)cc3)C[C@@]21C` [Mifepristone]: the IC50 cell viability reads like this: (ICRF193 0 nM) over 45.8 µM; (ICRF193 200 nM) over 45.8 µM.

On to `OCCN1C[C@H](O)[C@@H](O)[C@H](O)[C@H]1CO` [Miglitol], for which the IC50 cell viability reads like this: (ICRF193 0 nM) over 45.8 µM; (ICRF193 200 nM) over 45.8 µM.

Compound `CCCCN1C[C@H](O)[C@@H](O)[C@H](O)[C@H]1CO` [Miglustat] had an IC50 cell viability (ICRF193 0 nM) of over 45.8 µM and an IC50 cell viability (ICRF193 200 nM) of over 45.8 µM.

For `CCN(CC)C(=O)C1(c2ccccc2)CC1CN` (configuration not stated) [Milnacipran hydrochloride], the IC50 cell viability was over 45.8 µM (ICRF193 0 nM) and over 45.8 µM (ICRF193 200 nM).

On to `Cc1[nH]c(=O)c(C#N)cc1-c1ccncc1` [Milrinone], for which the IC50 cell viability by setting is: (ICRF193 0 nM) over 45.8 µM; (ICRF193 200 nM) over 45.8 µM.

Take `CCCCCCCCCCCCCCCCOP(=O)([O-])OCC[N+](C)(C)C` [Miltefosine]: the IC50 cell viability was over 45.8 µM (ICRF193 0 nM) and over 45.8 µM (ICRF193 200 nM).

Take `CN(C)c1ccc(O)c2c1C[C@H]1C[C@H]3[C@H](N(C)C)C(O)=C(C(N)=O)C(=O)[C@@]3(O)C(O)=C1C2=O` [Minocycline hydrochloride]: the IC50 cell viability is, setting by setting: (ICRF193 0 nM) over 45.8 µM; (ICRF193 200 nM) over 45.8 µM.
